# What was measured:
# [1] = system: NF-κB; test: NF-κB inhibitor screen: basal NF-κB-dependent luciferase expression in HEK/NF-κB cell line; type: cell-based; settings: 1 uM, determined as described in Example 398; for inhibition at 1 µM: read-out: NFkB inhibition @ 1 uM
# Description: Development of NF-κB and AP-1 Screens: Two HEK293 cell lines were purchased from Panomics. One cell line was stably transfected with a plasmid in which luciferase expression is regulated by six copies of the NF-κB transcriptional element (5′-[…]-3′); and the other cell line was stably transfected with a plasmid in which luciferase expression is regulated by three copies of the AP-1 transcriptional element (TGACTAA). To test the biological activity of the promoters, the HEK/NF-κB cell line was stimulated with TNF-α (20 ng/ml) for 24 hours, and the HEK/AP-1 cell line was stimulated with PMA (10 ng/ml) for 24 hours. […] In addition, a pyrimidine carboxyimide that had previously been shown (ref. 58) to be an inhibitor of transcription mediated by NF-κB and AP-1 reduced luciferase activity by approximately 40% in each of the NF-κB and AP-1 cell lines.
# The above two assays analyzed the effects of the compounds on post-transcriptional gene regulation, which is known to play a key role in cancer and inflammation. By contrast, the NF-κB assay and the following assay (AP-1) test whether the compounds act at the transcriptional level. Thirty-nine representative compounds were screened in an HEK/NF-κB cell line. HEK cells were stably transfected with a plasmid expressing luciferase under the control of the NF-κB promoter. These transfected cells were plated on a 96-well plate. As above, initial screening was carried out at 1.0 μM by adding compound in DMSO (0.3%) twenty-four hours after plating. Each compound was added to each of triplicate wells. DMSO (0.3%) was added to one set of wells as a control. Luciferase activity was determined using Promega's Brite-Glo kit, and the mean for each sample was normalized to that for DMSO.
# The fourteen representative compounds identified in the eIF4E screen as interesting (Numbered 2, 3, 4, 6, 8, 11, 15, 20, 21, 24, 25, 32, 33, and 35) were then tested for luciferase activity in a six-point dose response (10 nM, 33 nM, 100 nM, 330 nM, 1000 nM, and 3300 nM). Screening was carried out as described above by monitoring the effects of the compounds on basal NF-κB-dependent luciferase expression. Each dose was used out in triplicate, and repeated between two and four times. Results were normalized by the average expression level at the lowest concentration level, as described above.
# [2] = system: AP-1; test: AP-1 inhibitor screen: basal AP-1-dependent luciferase expression in HEK/AP-1 cell line; type: cell-based; settings: 1 uM, determined as described in Example 398; for inhibition at 1 µM: AP1
# Description: Development of NF-κB and AP-1 Screens: Two HEK293 cell lines were purchased from Panomics. One cell line was stably transfected with a plasmid in which luciferase expression is regulated by six copies of the NF-κB transcriptional element (5′-[…]-3′); and the other cell line was stably transfected with a plasmid in which luciferase expression is regulated by three copies of the AP-1 transcriptional element (TGACTAA). To test the biological activity of the promoters, the HEK/NF-κB cell line was stimulated with TNF-α (20 ng/ml) for 24 hours, and the HEK/AP-1 cell line was stimulated with PMA (10 ng/ml) for 24 hours.
# HEK cells were stably transfected with a plasmid expressing luciferase under the control of the AP-1 promoter. The transfected cells were plated on a 96-well plate for 24 hr. Then 1.0 μM of each compound in DMSO (0.3%) was added to triplicate wells and incubated for 48 hr. DMSO (0.3%) was added to one set of triplicate wells as a control. Luciferase activity was determined using Promega's Brite-Glo kit, and the mean for each sample was normalized to that for DMSO.
# Screening was carried out as described above, monitoring the compounds' effects on basal AP-1-dependent luciferase expression. Each dose-response experiment was carried out in triplicate and repeated between two and four times.
# [3] = system: carageenan-induced edema; test: Carrageenan-induced rat paw edema test (anti-inflammatory activity); type: in vivo, Sprague-Dawley rats; set-up: % Protection: concentration or dose not given beside the values; settings: for inhibition in vivo at 50 mg/kg: Rattus norvegicus, po, 3 h, read-out: % Protection P; for inhibition in vivo at 50 mg/kg / % Protection P: rat paw edema, reading 3 hours after carrageenan, [(Control−Test)/Control]×100%, 50 mg/kg
# Procedure, shortened: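 Edema was raised by sub-plantar injection of 1% carrageenan into the right hind paw, 1 h after dosing 18 h-fasted male/female Sprague-Dawley rats (150-250 g) with 50 mg/kg p.o. in 0.1% CMC. Swelling was measured by displacement 3 h later and expressed as % protection against saline control.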
# [4] = system: NF-κB; test: TNF-α-induced NF-κB-dependent luciferase expression in HEK cells; type: cell-based; settings: luciferase in HEK/NF-κB cells, as described in Example 398; for inhibition at 1 µM: Homo sapiens, HEK293, 1 uM, read-out: NFkB inhibition @ 1 uM
# [5] = system: AP-1; test: PMA-induced AP-1 luciferase expression in HEK cells; type: cell-based; settings: luciferase in HEK/AP-1 cells, as described in Example 398; for inhibition at 1 µM: AP1, 1 uM
compound,measurement,setting,value
2-[2-(1-Furan-2-yl-vinylamino)-4-phenyl-thiazol-5-yl]-3-(4-Chloro-phenyl)-3H-quinazolin-4-one [Example 255],NFkB inhibition @ 1 uM,[1],0
same,AP-1 inhibition @ 1 uM,[2],7
2-[2-(1-Furan-2-yl-vinylamino)-4-phenyl-thiazol-5-yl]-3-(4-acetyl-phenyl)-3H-quinazolin-4-one [Example 270],% Protection,"[3]; carrageenan-induced rat paw edema, defined in Example 397",20%
same,NFkB inhibition @ 1 uM,[1],11
same,AP-1 inhibition @ 1 uM,[2],18
"CCOC(=O)Nc1nc(C)c(-c2nc3ccccc3c(=O)n2-c2ccccc2C)s1 [Example 166, [4-Methyl-5-(4-oxo-3-o-tolyl-3,4-dihidro-quinazolin-2-yl)-thiazol-2-yl]-carbamic acid ethyl ester]",NFkB inhibition @ 1 uM,[1],21
same,AP-1 inhibition @ 1 uM,[2],14
"COc1ccc(-n2c(-c3sc(NC(=O)c4ccc(C)cc4)nc3-c3ccccc3)nc3ccccc3c2=O)cc1 [Example 223, 4-Methyl-N-[5-(4-oxo-3-(4-methoxyphenyl)-3,4-dihydroquinazolin-2-yl)-4-phenyl-thiazol-2-yl]-benzamide]",inhibition at 1 µM,[1],-24%
same,inhibition at 1 µM,[2],-28%
"Cc1ccc(Nc2nc(-c3ccccc3)c(-c3nc4ccccc4c(=O)n3-c3ccc(Cl)cc3)s2)cc1 [Example 257, 2-[2-(4-Methyl-phenylamino)-4-phenyl-thiazol-5-yl]-3-(4-Chloro-phenyl)-3H-quinazolin-4-one]",inhibition at 1 µM,[1],-10%
same,inhibition at 1 µM,[2],-51%
"COC(=O)Nc1nc(-c2ccccc2)c(-c2nc3ccccc3c(=O)n2-c2ccc(C(C)=O)cc2)s1 [Example 265, [5-(4-Oxo-3-(4-acetyl-phenyl)-3,4-dihidro-quinazolin-2-yl)-4-phenyl-thiazol-2-yl]-carbamic acid methyl ester]",NFkB inhibition @ 1 uM,[1],0
same,AP-1 inhibition @ 1 uM,[2],16
"Cc1c(OCC(F)(F)F)ccnc1-c1sc(N2CCN(C(=O)c3ccco3)CC2)nc1-c1ccco1 [Example 379, Furan-2-yl-(4-{4-furan-2-yl-5-[3-methyl-4-(2,2,2-trifluoro-ethoxy)-pyridin-2-yl]-thiazol-2-yl}-piperazin-1-yl)-methanone]",inhibition in vivo at 50 mg/kg,[3],62.4%
same,inhibition at 1 µM,[4],51.1%
same,inhibition at 1 µM,[5],3.23%
"O=C(c1ccc(Cl)cc1)c1sc(N2CCN(C(=O)c3ccco3)CC2)nc1-c1ccccc1 [Example 383, (4-Chloro-phenyl)-{2-[4-(furan-2-carbonyl)-piperazin-1-yl]-4-phenyl-thiazol-5-yl}-methanone]",inhibition in vivo at 50 mg/kg,[3],62%
same,inhibition at 1 µM,[4],-0.23%
same,inhibition at 1 µM,[5],13.3%
"O=C(c1ccc(Cl)cc1Cl)c1sc(N2CCN(C(=O)c3ccco3)CC2)nc1-c1ccccc1 [Example 384, (2,4-Dichloro-phenyl)-{2-[4-(furan-2-carbonyl)-piperazin-1-yl]-4-phenyl-thiazol-5-yl}-methanone]",inhibition in vivo at 50 mg/kg,[3],71.6%
same,inhibition at 1 µM,[4],-1.4%
same,inhibition at 1 µM,[5],42.5%
"CS(=O)(=O)c1ccc(C(=O)c2sc(N3CCN(C(=O)c4ccco4)CC3)nc2-c2ccccc2)cc1 [Example 385, {2-[4-(Furan-2-carbonyl)-piperazin-1-yl]-4-phenyl-thiazol-5-yl}-(4-methanesulfonyl-phenyl)-methanone]",inhibition in vivo at 50 mg/kg,[3],67%
same,inhibition at 1 µM,[4],-15.1%
same,inhibition at 1 µM,[5],6.44%
"O=C(c1cccnc1)c1sc(N2CCN(C(=O)c3ccco3)CC2)nc1-c1ccccc1 [Example 386, {2-[4-(Furan-2-carbonyl)-piperazin-1-yl]-4-phenyl-thiazol-5-yl}-pyridin-3-yl-methanone]",inhibition in vivo at 50 mg/kg,[3],23%
same,inhibition at 1 µM,[4],52.8%
same,inhibition at 1 µM,[5],22.5%
"COc1c(C)cnc(-c2sc(N3CCN(C(=O)c4ccco4)CC3)nc2-c2ccccc2)c1C [Example 388, Furan-2-yl-{4-[5-(4-methoxy-3,5-dimethyl-pyridin-2-yl)-4-phenyl-thiazol-2-yl]-piperazin-1-yl}-methanone]",inhibition in vivo at 50 mg/kg,[3],73.4%
same,inhibition at 1 µM,[4],7.64%
same,inhibition at 1 µM,[5],52.1%
"Cc1c(OCC(F)(F)F)ccnc1-c1sc(N2CCN(C(=O)c3ccco3)CC2)nc1-c1ccccc1 [Example 389, Furan-2-yl-(4-{5-[3-methyl-4-(2,2,2-trifluoro-ethoxy)-pyridin-2-yl]-4-phenyl-thiazol-2-yl}-piperazin-1-yl)-methanone]",inhibition in vivo at 50 mg/kg,[3],61.6%
same,inhibition at 1 µM,[4],30.7%
same,inhibition at 1 µM,[5],42.5%
"O=C(c1ccccn1)c1sc(N2CCN(C(=O)c3ccco3)CC2)nc1-c1ccccc1 [Example 390, {2-[4-(Furan-2-carbonyl)-piperazin-1-yl]-4-phenyl-thiazol-5-yl}-pyridin-2-yl-methanone]",inhibition in vivo at 50 mg/kg,[3],17%
same,inhibition at 1 µM,[4],0.47%
same,inhibition at 1 µM,[5],40.9%
"Cc1ccc(Nc2nc(-c3ccccc3)c(C(=O)c3sc(Nc4ccc(C)cc4)nc3-c3ccccc3)s2)cc1 [Example 394, Bis-[2-(4-methyl-phenylamino)-4-phenyl-thiazol-5-yl]-methanone]",inhibition in vivo at 50 mg/kg,[3],56%
same,inhibition at 1 µM,[4],18.7%
same,inhibition at 1 µM,[5],41.9%
(5-Morpholin-4-yl-4-pyridin-3-yl-thiophene-2-yl)-phenyl-methanone [Example 90],% Protection P,[3],6.09%
same,NFkB inhibition @ 1 uM,[4],7.91
same,AP-1 inhibition @ 1 uM,[5],59.49
Bis-[2-(2-benzoyl-amino)-4-benzayl-thiazole-5-yl]-methanone [Example 135],% Protection P,[3],34.72%
same,NFkB inhibition @ 1 uM,[4],39.98
same,AP-1 inhibition @ 1 uM,[5],41.43
Bis-[2-(2-furoyl-amino)-4-benzayl-thiazole-5-yl]-methanone [Example 136],% Protection P,[3],45.13%
same,NFkB inhibition @ 1 uM,[4],44.46
same,AP-1 inhibition @ 1 uM,[5],32.23
Bis-[4-(4-chloro-phenyl)-5-morpholin-4-yl-thiophen-2-yl]-methanone [Example 114],% Protection P,[3],30.55%
same,NFkB inhibition @ 1 uM,[4],−39.23
same,AP-1 inhibition @ 1 uM,[5],−70.59
"Dimethyl[carbonyl-bis(4-phenyl-1,3-thiazole-5,2-diyl)]biscarbamate [Example 130]",% Protection P,[3],40.78%
same,NFkB inhibition @ 1 uM,[4],12.78
same,AP-1 inhibition @ 1 uM,[5],9.2
N-{4-[4-(4-Chloro-phenyl)-5-morpholin-4-yl-thiophen-2-carbonyl]-phenyl}acetamide [Example 85],% Protection P,[3],20%
same,NFkB inhibition @ 1 uM,[4],−17.34
same,AP-1 inhibition @ 1 uM,[5],22.58
"{5-[3-(3-Methoxy-phenyl)-4-oxo-3,4-dihydro-quinazolin-yl]-thiazol-2-yl}-carbamic acid ethyl ester [Example 209]",NFkB inhibition @ 1 uM,[1],29
same,AP-1 inhibition @ 1 uM,[2],5

# Reference: patent US8829014B2, “Thiazole and thiophene analogues, and their use in treating autoimmune diseases and cancers” (Board of Supervisors of Louisiana State University and …, priority 2006, dated 2014)
